Data set [1] has as its system Streptococcus pyogenes ATCC19615. Kind of data set: Antimicrobial MIC, agar dilution.
Data set [2] concerns Candida albicans (local isolate). Kind of data set: Antimicrobial MIC, agar dilution. As to conditions: Candida albicans, read-out: Minimum inhibitory concentration (MIC). Background: Agar dilution tests growth on a series of plates holding different concentrations.
Data set [3] has as its system Pseudomonas aeruginosa ATCC27853. Kind of data set: Antimicrobial MIC, agar dilution.
In data set [4] the test system is Staphylococcus aureus ATCC25923. Nature of the data set: Antimicrobial MIC, agar dilution.
For data set [5], the system named is HepG2 (hepatocellular) carcinoma cell line. Nature of the data set: Anti-tumor properties, MTT. The data set is classed as cell-based. The note with it: Homo sapiens; HepG2, 100 μM, 72 h; read-out: Percentage growth of tumor cell lines treated with the tested compounds (±SD). As to the method: (§1) Anti-tumor properties of curcumin conjugates were evaluated. The synthesized curcumin-amino acid conjugates and curcumin itself were screened for their antitumor properties against human tumor cell lines utilizing HepG2 (hepatocellular), MCF7 (breast), and HCT116 (colon) carcinoma cell lines by the standard mitochondrial dependent reduction of yellow MTT [3-(4,5-dimethylthiazol-2-yl)-2,5-diphenyl-tetrazolium bromide] to purple formazan technique. Cancer cells were obtained from the Egyptian Company for Production of Vaccines, Sera and Drugs (VACSERA), Cairo, Egypt. Media, chemicals and supplies for the bio-assay were obtained from Biowest, Gibco and Lonza Companies. Cells were suspended in RPMI-1640 medium for HepG2, DMEMF12 for MCF-7, and DMEM for HCT116 in addition to 1% antibiotic-antimycotic mixture (10 […] potassium penicillin, 10 […] streptomycin sulfate and […] amphotericin B), 10% fetal bovine serum and 1% L-glutamine at 37° C., under 5% CO2 and 95% humidity. Cells were seeded at a concentration of 10×10^3 cells per well in fresh complete growth medium in 96-well tissue culture microtiter plates for 24 h. Media was aspirated, 180 μL fresh medium (without serum) were added and cells were incubated with different concentrations of sample to give a final concentration of 100 μM. 0.5% DMSO was used as a negative control and doxorubicin was used as a positive control (standard reference). Triplicate wells were prepared for each individual tested compound/dose. After 72 h of incubation, the medium was aspirated, 40 μL MTT salt (2.5 mg ml^1) were added to each well and incubated for an additional 4 h at 37° C. To stop the reaction and dissolve the formed crystals, 200 μL of 10% sodium dodecyl sulfate (SDS) in deionized water were added to each well and incubated overnight at 37° C. The absorbance was then measured at 595 nm with a reference wavelength of 620 nm. Data were collected as mean values for experiments performed in triplicates for each compound which had been measured by MTT assay.
(§2) The percentage of cell survival was calculated according to equation (4): […]
(§3) The IC50 was determined using Graph-Pad PRISM version-5 software. Statistical calculations for determination of the mean and standard deviation (SD) values were determined by SPSS 16 software.

Data set [6] relates to HCT116 (colon) carcinoma cell line. Kind of data set: Anti-tumor properties, MTT. The data set is classed as cell-based. The note with it: Homo sapiens, HCT-116; HCT116, 100 μM, 72 h; read-out: Percentage growth of tumor cell lines treated with the tested compounds (±SD). As to the method: as §1, §2, §3
Data set [7] relates to MCF7 (breast) carcinoma cell line. Nature of the data set: Anti-tumor properties, MTT. Format: cell-based. As to conditions: Homo sapiens; MCF7, 100 μM, 72 h; read-out: Percentage growth of tumor cell lines treated with the tested compounds (±SD). As to the method:
as §1, §2, §3

Data set [8] deals with PHA-stimulated splenocytes. Nature of the data set: Proliferative response of PHA-stimulated splenocytes (MTT assay). The data set is classed as cell-based. As to conditions: PHA 5 μg/ml, 72 hr; compounds at 5 μM (method says 10 μM); ratio of O.D. versus vehicle control. As for the experimental part: Immunomodulatory effects of the synthesized curcumin conjugates on the proliferative response of PHA-stimulated splenocytes were evaluated. The effect of curcumin and its amino acid conjugates on splenocyte viability and proliferation in response to a T cell miotgen (Phytohaemagglutinin; PHA) was evaluated using the MTT assay. Freshly prepared splenocytes (1×10^6 cells/200 μl/well) were cultured in a 96-well U-bottom microtiter plate (Nunc) in complete medium. Cells were treated with tested compounds at a final concentration of 10 μM, vehicle (DMSO) or left untreated in triplicate then incubated at 37° C. and 5% CO2. When testing the immunoregulatory effects of the compounds on splenocyte stimulation, PHA (5 μg/ml) was added to the culture media to induce T cell proliferation. The proliferative response to PHA+vehicle and vehicle alone served as controls. After 72 hr, media were removed after pelleting the cells by centrifugation and MTT salt solution (5 mg/ml) was added into each well then incubated at 37° C. for 4 h. Afterwards, formazan crystals were dissolved by adding 150 μl 10% sodium dodecyl sulfate (SDS). Absorbance was measured with a spectrophotometer at 570 nm and reference wavelength of 690 nm.
Splenocyte stimulation index was determined as the ratio of O.D. values in tested compounds versus vehicle control cultures.
In general terms: Formazan colour is commonly taken as a measure of viable cells.

Data set [9] relates to lipopolysaccharide-stimulated peritoneal macrophages. Kind of data set: Production of nitric oxide by lipopolysaccharide-stimulated peritoneal macrophages (Greiss reagent). Format: cell-based. Details: Potency (%): % inhibition of nitric oxide production relative to lipopolysaccharide-stimulated macrophages: concentration or dose not given beside the values. As to conditions: LPS-stimulated peritoneal macrophages; for Nitric oxide (nitrite) concentration, μM (average ± SD): 24 h, nitrite by Greiss reagent. As for the experimental part: The effects of the synthesized curcumin conjugates on the production of nitric oxide (μM) by lipopolysaccharide-stimulated peritoneal macrophages were evaluated.
Two milliliters of macrophage cells were seeded in 12-well tissue culture plates in nitrite-free medium supplemented with 0.1% bovine serum albumin and incubated at 37° C. LPS±epinephrine, norepinephrine, or dopamine at […] concentrations was added to some wells. The concentrations of LPS used ranged from 0.5 to 10 ng/ml. After incubation for 24 h, supernatants were collected for measuring nitric oxide (NO) by spectrophotometry. The production of NO was determined from the accumulation of nitrite (NO2), the metabolic end product of NO metabolism, in the medium using the Greiss reagent. About equal volumes (100 μl) of sample and Greiss reagent (1:1 mixture of 1% sulfanilamide in 5% phosphoric acid, and 0.1% a-naphthylamine in distilled water) were mixed and incubated at room temperature for 15 min, and absorbance was measured at 532 nm on a spectrophotometer.

Data set [10] deals with Salmonella typhi ATCC19430. Nature of the data set: Antimicrobial MIC, agar dilution. Format: cell-based. As to conditions: Salmonella enterica, read-out: Minimum inhibitory concentration (MIC).
Data set [11] concerns MCF-7 cells. Kind of data set: Effect on doxorubicin induced cytotoxicity (MTT). The note with it: for Percentage of viable cells MCF-7 (average ± SD): 10 μM DOX in combination with 100 μM curcumin derivative, 48 hr; for viability at 100 µM: Homo sapiens, MCF7, 48 h, read-out: Percentage of viable cells MCF-7 (average ± SD). As to the method:
The effects of curcumin conjugates on doxorubicin induced cytotoxicity were evaluated. In order to further examine whether curcumin derivatives can enhance conventional chemotherapeutic agents, MCF-7 cells were treated with 100 μM curcumin derivatives alone or in combination with 10 μM doxorubicin (DOX) for 48 hr. Control cultures received only medium, vehicle (DMSO), or vehicle+DOX. The percentage of viable cells was determined by MTT assay according to equation (5): […]

Setting [12] is: ATCC19615, 18 h, read-out: Minimum inhibitory concentration (MIC).
Setting [13] is: ATCC19615, read-out: Minimum inhibitory concentration (MIC).
Where [14] appears, read: ATCC27853, 18 h, read-out: Minimum inhibitory concentration (MIC).
[15] abbreviates: ATCC27853, read-out: Minimum inhibitory concentration (MIC).
Setting [16] is: ATCC25923, 18 h, read-out: Minimum inhibitory concentration (MIC).
Setting [17] is: ATCC25923, read-out: Minimum inhibitory concentration (MIC).

Like-named read-outs stand apart in the source and are kept apart here.

`COc1cc(/C=C/C(=O)CC(=O)/C=C/c2ccc(OC(=O)[C@@H](NC(=O)OCC3c4ccccc4-c4ccccc43)C(C)C)c(OC)c2)ccc1OC(=O)[C@@H](NC(=O)OCC1c2ccccc2-c2ccccc21)C(C)C` [Fmoc-Val-Cur, ((1E,6E)-3,5-dioxohepta-1,6-diene-1,7-diyl)bis(2-methoxy-4,1-phenylene) (2S,2′S)-bis(2-((((9H-fluoren-9-yl)methoxy)carbonyl)amino)-3-methylbutanoate)]: the MIC in [1] (setting [12]) stood at 0.5 µg/mL; in data set [1] (setting [13]), 0.494 µM; in [2] (18 h), 0.5 µg/mL; in data set [2], 0.494 µM; in [3] (setting [14]) it was 0.5 µg/mL; in data set [3] (setting [15]) it was 0.494 µM. The MIC in data set [4] (setting [16]) was determined as 0.25 µg/mL; in data set [4] (setting [17]), 0.247 µM; in [10] (18 h) it was 0.5 µg/mL; in data set [10] it was 0.494 µM. Besides, the activity at 100 µM in data set [5] stood at 116 ± 3.3%; in [6] it was 81.8 ± 5.8%; in [7], 83.2 ± 0.8%. Moreover, the “Stimulation Index (average ± SD)” value in [8] was 2.55 ± 0.13. The “Potency (%): % inhibition of nitric oxide production relative to lipopolysaccharide-stimulated macrophages” value in [9] was 12.46%. Also, the “Nitric oxide (nitrite) concentration, μM (average ± SD)” value (shortened to “Nitric oxide … (average ± SD)”) in data set [9] was determined as 23.91 ± 0.87 µM. In addition, the “Percentage of viable cells MCF-7 (average ± SD)” value (“Percentage … (average ± SD)” below) in [11] worked out at 25.15. Also, the viability at 100 µM in data set [11] is 100 ± 1.95%.

In the case of `COc1cc(/C=C/C(=O)CC(=O)/C=C/c2ccc(OC(=O)CNC(=O)OCc3ccccc3)c(OC)c2)ccc1OC(=O)CNC(=O)OCc1ccccc1` [Cbz-Gly-Cur, ((1E,6E)-3,5-dioxohepta-1,6-diene-1,7-diyl)bis(2-methoxy-4,1-phenylene) bis(2-(((benzyloxy)carbonyl)amino)acetate)], the MIC stood at 0.125 µg/mL in [1] (setting [12]); 0.166 µM in data set [1] (setting [13]); 0.5 µg/mL in [2] (18 h); 0.666 µM in data set [2]; 1 µg/mL in data set [3] (setting [14]); 1.33 µM in data set [3] (setting [15]). Also, the MIC stood at 0.125 µg/mL in data set [4] (setting [16]), 0.166 µM in data set [4] (setting [17]), 0.5 µg/mL in [10] (18 h) and 0.666 µM in [10]. In addition, the activity at 100 µM in [5] was 79.8 ± 8.8%; in [6] it was 88.1 ± 2.6%; in data set [7], 60 ± 2.7%. In addition, the “Stimulation Index (average ± SD)” value in data set [8] worked out at 2.64 ± 0.10. Besides, the “Potency (%): % inhibition of nitric oxide production relative to lipopolysaccharide-stimulated macrophages” value in data set [9] was 10.11%. Besides, the “Nitric oxide … (average ± SD)” value in data set [9] stood at 24.55 ± 0.66 µM. Moreover, the “Percentage … (average ± SD)” value in data set [11] stood at 45.44 ± 1.88. The viability at 100 µM in data set [11] was found to be 97.4 ± 5.3%.

`COc1cc(/C=C/C(=O)CC(=O)/C=C/c2ccc(OC(=O)[C@H](C)NC(=O)OCc3ccccc3)c(OC)c2)ccc1OC(=O)[C@H](C)NC(=O)OCc1ccccc1` [Cbz-Ala-Cur, ((1E,6E)-3,5-dioxohepta-1,6-diene-1,7-diyl)bis(2-methoxy-4,1-phenylene) (2S,2′S)-bis(2-(((benzyloxy)carbonyl)amino)propanoate)]: the MIC in data set [1] (setting [12]) turned out to be 0.125 µg/mL; in data set [1] (setting [13]), 0.161 µM; in data set [2] (18 h), 2 µg/mL; in data set [2], 2.57 µM; in data set [3] (setting [14]), 2 µg/mL; in [3] (setting [15]), 2.57 µM. Also, the MIC in data set [4] (setting [16]) was found to be 0.25 µg/mL; in [4] (setting [17]) it was 0.321 µM; in data set [10] (18 h), 0.5 µg/mL; in [10] it was 0.642 µM. In addition, the activity at 100 µM in data set [5] amounted to 82.3 ± 4.2%; in [6] it was 86.6 ± 6.2%; in data set [7], 70 ± 4.1%. Besides, in data set [8], the “Stimulation Index (average ± SD)” value amounted to 2.70 ± 0.25. The “Potency (%): % inhibition of nitric oxide production relative to lipopolysaccharide-stimulated macrophages” value in [9] turned out to be 8.86%. Further, the “Nitric oxide … (average ± SD)” value in data set [9] stood at 24.89 ± 1.65 µM. In addition, in [11], the “Percentage … (average ± SD)” value is 46.65 ± 2.06. The viability at 100 µM in [11] was found to be 99.5 ± 4.47%.

Regarding `COc1cc(/C=C/C(=O)CC(=O)/C=C/c2ccc(OC(=O)[C@H](CC(C)C)NC(=O)OCc3ccccc3)c(OC)c2)ccc1OC(=O)[C@H](CC(C)C)NC(=O)OCc1ccccc1` [Cbz-Leu-Cur, ((1E,6E)-3,5-dioxohepta-1,6-diene-1,7-diyl)bis(2-methoxy-4,1-phenylene) (2S,2′S)-bis(2-(((benzyloxy)carbonyl)amino)-4-methylpentanoate)], the MIC in data set [1] (setting [12]) was found to be 0.125 µg/mL; in [1] (setting [13]), 0.145 µM; in data set [2] (18 h), 0.5 µg/mL; in [2] it was 0.579 µM; in data set [3] (setting [14]), 0.125 µg/mL; in [3] (setting [15]), 0.145 µM. Moreover, the MIC in data set [4] (setting [16]) turned out to be 0.125 µg/mL; in data set [4] (setting [17]), 0.145 µM; in [10] (18 h) it was 0.25 µg/mL; in [10] it was 0.29 µM. Moreover, the figures for the activity at 100 µM in [5], in data set [6] and in [7] were 85.1 ± 5.7%, 94.7 ± 5.8% and 85.7 ± 1.2%, respectively. In addition, in data set [8], the “Stimulation Index (average ± SD)” value amounted to 2.83 ± 0.17. For the same molecule, the “Potency (%): % inhibition of nitric oxide production relative to lipopolysaccharide-stimulated macrophages” value in data set [9] worked out at 4.57%. For the same molecule, in [9], the “Nitric oxide … (average ± SD)” value was 26.06 ± 0.65 µM. For the same molecule, the “Percentage … (average ± SD)” value in [11] was 50.17 ± 4.94. Besides, the viability at 100 µM in data set [11] came out at 98.2 ± 3.44%.

For the origin of these results see US10660967B2, “Curcumin conjugates and methods of use thereof” (priority 2016, dated 2020).
